# Test results from PMC6199744, “Development of Chemical Proteomics for the Folateome and Analysis of the Kinetoplastid Folateome” (ACS Infectious Diseases, 2018).
# Like-named read-outs stand apart in the source and are kept apart here.
# Tests used:
# Type in all cases: binding
# [1] = target: T1, HeLa cell extract proteins (Homo sapiens, UniProt O75131)
# T1 construct: endogenous in cells; host or cells: HeLa cell extract
# [2] = target: T2, HeLa cell extract proteins (Homo sapiens, UniProt P19105)
# T2 construct: endogenous in cells; host or cells: HeLa cell extract
# T2 sequence (P19105 1-171): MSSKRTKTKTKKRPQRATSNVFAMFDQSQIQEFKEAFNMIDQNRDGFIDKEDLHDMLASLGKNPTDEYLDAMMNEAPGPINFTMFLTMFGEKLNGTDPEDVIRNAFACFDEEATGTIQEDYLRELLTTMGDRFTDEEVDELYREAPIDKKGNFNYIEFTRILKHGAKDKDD
# [3] = target: T3, HeLa cell extract proteins (Homo sapiens, UniProt P52888)
# T3 construct: endogenous in cells; host or cells: HeLa cell extract
# T3 sequence (P52888 whole entry): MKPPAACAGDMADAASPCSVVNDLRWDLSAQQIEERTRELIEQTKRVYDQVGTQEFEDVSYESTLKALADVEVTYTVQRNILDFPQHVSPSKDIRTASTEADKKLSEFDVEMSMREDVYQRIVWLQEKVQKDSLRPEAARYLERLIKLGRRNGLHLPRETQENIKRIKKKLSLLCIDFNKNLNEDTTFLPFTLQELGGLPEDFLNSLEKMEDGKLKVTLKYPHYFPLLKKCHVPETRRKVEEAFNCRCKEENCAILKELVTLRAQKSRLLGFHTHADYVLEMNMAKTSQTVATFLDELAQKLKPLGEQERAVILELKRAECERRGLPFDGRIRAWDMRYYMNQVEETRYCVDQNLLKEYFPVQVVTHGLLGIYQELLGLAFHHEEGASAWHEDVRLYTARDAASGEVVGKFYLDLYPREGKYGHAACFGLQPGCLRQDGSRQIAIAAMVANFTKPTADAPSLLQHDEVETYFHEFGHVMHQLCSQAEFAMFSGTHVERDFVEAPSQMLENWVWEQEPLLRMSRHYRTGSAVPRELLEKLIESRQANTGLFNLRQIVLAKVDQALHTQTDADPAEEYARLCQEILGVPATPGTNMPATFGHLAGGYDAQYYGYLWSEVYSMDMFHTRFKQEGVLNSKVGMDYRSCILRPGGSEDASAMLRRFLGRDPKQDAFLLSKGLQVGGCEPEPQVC
# [4] = target: T4, HeLa cell extract proteins (Homo sapiens, UniProt P55084)
# T4 construct: endogenous in cells; host or cells: HeLa cell extract
# T4 sequence (P55084 34-474): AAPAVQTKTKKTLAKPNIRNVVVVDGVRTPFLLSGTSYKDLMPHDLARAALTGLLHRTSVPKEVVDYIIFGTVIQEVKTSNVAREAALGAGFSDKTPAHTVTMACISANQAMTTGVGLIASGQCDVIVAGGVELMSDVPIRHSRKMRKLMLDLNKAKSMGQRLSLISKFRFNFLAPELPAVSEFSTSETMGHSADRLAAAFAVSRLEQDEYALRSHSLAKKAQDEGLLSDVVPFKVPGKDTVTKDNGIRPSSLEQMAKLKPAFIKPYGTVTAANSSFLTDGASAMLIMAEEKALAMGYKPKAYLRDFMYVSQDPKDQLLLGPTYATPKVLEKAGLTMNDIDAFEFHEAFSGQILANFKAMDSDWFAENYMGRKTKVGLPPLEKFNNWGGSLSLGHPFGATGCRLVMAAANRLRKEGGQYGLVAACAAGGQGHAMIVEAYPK
# [5] = target: T5, HeLa cell extract proteins (Homo sapiens, UniProt P62888)
# T5 construct: endogenous in cells; host or cells: HeLa cell extract
# [6] = target: T6, HeLa cell extract proteins (Homo sapiens, UniProt P68871)
# T6 construct: endogenous in cells; host or cells: HeLa cell extract
# T6 sequence (P68871 whole entry): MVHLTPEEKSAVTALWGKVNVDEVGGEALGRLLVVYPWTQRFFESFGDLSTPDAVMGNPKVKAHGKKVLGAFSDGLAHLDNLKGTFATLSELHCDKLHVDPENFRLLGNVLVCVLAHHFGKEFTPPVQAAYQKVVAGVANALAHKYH
# [7] = target: T7, HeLa cell extract proteins (Homo sapiens, UniProt Q9H4A4)
# T7 construct: endogenous in cells; host or cells: HeLa cell extract
# T7 sequence (Q9H4A4 whole entry): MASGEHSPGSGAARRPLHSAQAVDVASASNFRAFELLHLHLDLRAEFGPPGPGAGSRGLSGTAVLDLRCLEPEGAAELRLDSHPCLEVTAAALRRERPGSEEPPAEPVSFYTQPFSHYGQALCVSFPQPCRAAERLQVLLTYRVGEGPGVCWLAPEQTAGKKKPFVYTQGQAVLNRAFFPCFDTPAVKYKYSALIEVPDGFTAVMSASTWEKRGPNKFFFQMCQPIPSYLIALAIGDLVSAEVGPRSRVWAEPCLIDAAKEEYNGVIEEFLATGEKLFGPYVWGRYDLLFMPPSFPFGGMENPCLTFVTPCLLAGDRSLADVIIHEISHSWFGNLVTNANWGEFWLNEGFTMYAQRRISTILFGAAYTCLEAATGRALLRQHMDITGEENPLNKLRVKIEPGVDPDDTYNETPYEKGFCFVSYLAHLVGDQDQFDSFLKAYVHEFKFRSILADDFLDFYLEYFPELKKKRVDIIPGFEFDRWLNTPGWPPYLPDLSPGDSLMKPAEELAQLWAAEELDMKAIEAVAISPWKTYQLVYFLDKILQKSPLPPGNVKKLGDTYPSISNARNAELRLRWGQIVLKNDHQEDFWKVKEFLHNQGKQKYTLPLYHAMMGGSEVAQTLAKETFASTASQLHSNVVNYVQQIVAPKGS
# [8] = target: T8, HeLa cell extract proteins (Homo sapiens, UniProt Q9UNM6)
# T8 construct: endogenous in cells; host or cells: HeLa cell extract
# T8 sequence (Q9UNM6 1-376): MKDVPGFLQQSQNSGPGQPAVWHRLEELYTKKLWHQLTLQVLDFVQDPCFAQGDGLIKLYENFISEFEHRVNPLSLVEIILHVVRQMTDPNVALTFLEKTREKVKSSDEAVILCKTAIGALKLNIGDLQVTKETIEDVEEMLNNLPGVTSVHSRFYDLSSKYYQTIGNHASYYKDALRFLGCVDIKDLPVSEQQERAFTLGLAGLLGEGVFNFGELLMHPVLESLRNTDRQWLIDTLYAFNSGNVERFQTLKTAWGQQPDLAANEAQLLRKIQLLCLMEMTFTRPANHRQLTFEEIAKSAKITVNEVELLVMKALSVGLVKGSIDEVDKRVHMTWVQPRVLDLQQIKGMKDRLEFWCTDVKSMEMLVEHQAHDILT
# [9] = target: T9, HeLa cell extract proteins (Homo sapiens, UniProt O60684); conditions: protein KPNA6; HeLa
# T9 construct: endogenous in cells; host or cells: HeLa cell extract
# [10] = target: T10, HeLa cell extract proteins (Homo sapiens, UniProt Q9BVA1); conditions: HeLa; protein TUBB2B
# T10 construct: endogenous in cells; host or cells: HeLa cell extract
# T10 sequence (Q9BVA1 whole entry): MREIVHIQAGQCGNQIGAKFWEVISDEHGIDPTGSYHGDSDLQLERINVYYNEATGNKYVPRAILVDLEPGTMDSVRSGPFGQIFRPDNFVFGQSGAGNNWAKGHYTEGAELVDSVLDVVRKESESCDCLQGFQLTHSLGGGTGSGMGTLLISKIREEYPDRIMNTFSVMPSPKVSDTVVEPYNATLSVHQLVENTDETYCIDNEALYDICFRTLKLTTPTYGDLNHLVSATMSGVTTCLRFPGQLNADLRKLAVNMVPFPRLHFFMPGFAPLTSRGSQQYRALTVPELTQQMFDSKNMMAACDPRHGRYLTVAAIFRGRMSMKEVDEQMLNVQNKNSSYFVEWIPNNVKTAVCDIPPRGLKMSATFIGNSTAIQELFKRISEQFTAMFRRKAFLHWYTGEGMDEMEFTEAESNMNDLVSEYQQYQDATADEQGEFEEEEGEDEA
# [11] = target: T11, HeLa cell extract proteins (Homo sapiens, UniProt Q9UIA9); conditions: HeLa; protein XPO7
# T11 construct: endogenous in cells; host or cells: HeLa cell extract
# T11 sequence (Q9UIA9 1-1087): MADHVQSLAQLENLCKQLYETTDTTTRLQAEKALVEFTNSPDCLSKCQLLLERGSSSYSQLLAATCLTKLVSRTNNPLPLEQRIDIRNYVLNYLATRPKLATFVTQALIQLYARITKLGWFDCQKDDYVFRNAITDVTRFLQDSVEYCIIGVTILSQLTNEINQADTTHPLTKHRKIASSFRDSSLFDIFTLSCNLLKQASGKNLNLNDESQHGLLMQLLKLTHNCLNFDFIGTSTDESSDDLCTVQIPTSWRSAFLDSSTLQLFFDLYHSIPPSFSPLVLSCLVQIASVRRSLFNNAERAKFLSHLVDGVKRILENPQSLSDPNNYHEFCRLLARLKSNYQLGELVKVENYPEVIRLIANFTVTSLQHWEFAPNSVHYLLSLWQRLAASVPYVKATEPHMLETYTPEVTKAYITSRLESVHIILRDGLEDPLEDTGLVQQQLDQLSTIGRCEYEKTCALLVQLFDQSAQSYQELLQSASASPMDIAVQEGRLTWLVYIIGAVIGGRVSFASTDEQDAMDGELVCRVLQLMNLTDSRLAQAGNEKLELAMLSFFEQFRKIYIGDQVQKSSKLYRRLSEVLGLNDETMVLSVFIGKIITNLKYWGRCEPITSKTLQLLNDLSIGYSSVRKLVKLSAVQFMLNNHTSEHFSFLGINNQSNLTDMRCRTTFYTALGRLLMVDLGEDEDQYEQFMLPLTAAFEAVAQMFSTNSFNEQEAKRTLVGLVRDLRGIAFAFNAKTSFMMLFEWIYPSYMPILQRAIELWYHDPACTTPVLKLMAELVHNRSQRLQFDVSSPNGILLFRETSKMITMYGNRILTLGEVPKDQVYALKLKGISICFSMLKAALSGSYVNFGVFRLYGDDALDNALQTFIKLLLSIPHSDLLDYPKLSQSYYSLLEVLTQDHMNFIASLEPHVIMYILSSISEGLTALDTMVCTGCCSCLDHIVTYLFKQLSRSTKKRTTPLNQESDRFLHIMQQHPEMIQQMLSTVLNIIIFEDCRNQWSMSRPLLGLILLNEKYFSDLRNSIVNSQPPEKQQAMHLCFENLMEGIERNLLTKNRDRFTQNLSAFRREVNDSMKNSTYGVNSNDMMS
# [12] = HeLa, protein MRCL3 (MYOSIN REGULATORY LIGHT CHAIN MRCL3 VARIANT)
# [13] = HeLa, protein HBB (BETA-GLOBIN GENE FROM A T[…])
# T1 sequence (O75131 whole entry): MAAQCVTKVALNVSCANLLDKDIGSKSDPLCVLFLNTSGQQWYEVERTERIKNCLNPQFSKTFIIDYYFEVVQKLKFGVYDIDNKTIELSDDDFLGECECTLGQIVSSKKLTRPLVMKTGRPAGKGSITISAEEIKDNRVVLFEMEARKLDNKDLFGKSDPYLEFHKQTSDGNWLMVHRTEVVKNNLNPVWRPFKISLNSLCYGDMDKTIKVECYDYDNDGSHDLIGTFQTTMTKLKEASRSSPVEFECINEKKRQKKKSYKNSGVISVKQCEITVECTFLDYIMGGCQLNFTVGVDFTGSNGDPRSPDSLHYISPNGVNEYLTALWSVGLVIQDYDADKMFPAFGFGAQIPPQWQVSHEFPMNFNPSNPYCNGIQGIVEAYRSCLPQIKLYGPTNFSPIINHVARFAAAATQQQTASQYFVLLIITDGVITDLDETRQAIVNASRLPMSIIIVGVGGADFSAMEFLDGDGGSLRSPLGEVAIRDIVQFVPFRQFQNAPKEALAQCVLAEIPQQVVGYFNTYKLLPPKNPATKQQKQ
Structure (SMILES),"fold changes relative to vehicle control ([1]; HeLa, protein CPNE3)","fold changes relative to vehicle control [2, 12]","fold changes relative to vehicle control ([3]; protein THOP1, HeLa)","fold changes relative to vehicle control ([4]; HeLa, protein HADHB)","fold changes relative to vehicle control ([5]; protein RPL30, HeLa)","fold changes relative to vehicle control [6, 13]","fold changes relative to vehicle control ([7]; protein RNPEP, HeLa)","fold changes relative to vehicle control ([8]; protein PSMD13, HeLa)",fold changes relative to vehicle control [9],fold changes relative to vehicle control [10],fold changes relative to vehicle control [11],further results
"Nc1nc2c(c(=O)[nH]1)N(C=O)C(CNc1ccc(C(=O)N[C@@H](CCC(=O)O)C(=O)O)cc1)CN2 (some centres unmarked) [LEU, leucovorin]",1.23,0.8,0.87,0.85,0.86,1.13,0.93,0.95,–,–,–,–
"Nc1nc2[nH]cc(CCc3ccc(C(=O)N[C@@H](CCC(=O)O)C(=O)O)cc3)c2c(=O)[nH]1 [PTX, pemetrexed]",–,–,–,–,–,–,–,–,–,–,–,fold changes relative to vehicle control [1]: 0.77; fold changes relative to vehicle control [2]: 0.9; fold changes relative to vehicle control [3]: 0.95; fold changes relative to vehicle control [4]: 0.94; fold changes relative to vehicle control [5]: 0.89; fold changes relative to vehicle control [6]: 0.94; fold changes relative to vehicle control [7]: 0.81; fold changes relative to vehicle control [8]: 0.88
CCCCCCOc1ccc(Cc2cnc(N)nc2N)cc1 [compound 1],–,–,–,–,–,–,–,–,1.16,1.07,0.88,–
CCCCCCOc1cccc(Cc2cnc(N)nc2N)c1 [compound 2],–,–,–,–,–,–,–,–,1.34,1.03,1.28,–
Nc1nc2cccc(-c3ccccc3)c2n1Cc1ccc(Cl)c(Cl)c1 [compound 3],–,–,–,–,–,–,–,–,1.15,1.11,0.98,–
NCCOCCOCC(=O)Nc1nc2ncc(CNc3ccc(C(=O)NC(CCC(=O)O)C(=O)O)cc3)nc2c(=O)[nH]1 (centres unmarked) [compound 6],0.91,1.43,1.16,1.12,1,0.99,0.99,1.02,–,–,–,–
NCCCNc1ccc(C(=O)NC(CCC(=O)O)C(=O)O)cc1 (centres unmarked) [compound 7],0.85,0.93,0.83,1.04,0.92,0.87,0.74,0.86,–,–,–,–
